Tests used:
DP IV [1] = biological target: T1, DP IV (Homo sapiens, UniProt P27487); assay: DP IV-catalysed hydrolysis of H-Gly-Pro-pNA in the presence of inhibitor (progress curves); format: biochemical
Protocol: When the DP IV target enzyme is incubated with unstable inhibitors in the presence of a substrate, inhibition of the enzyme is observed initially; the inhibition subsides again as the experimental time progresses as a result of the intramolecular cyclisation of the inhibitor which takes place in parallel, since the concentration of the inhibitor in the reaction solution decreases as a result of the spontaneously occurring chemical reaction. Because of the time-dependent drop in the concentration of the inhibitor, the rate of the enzyme-catalysed hydrolysis of the substrate increases again as time progresses.
(§1) The active DP IV-inhibitor H-Val-Pro-CH2—(N^+C5H5) is released only as a result of the addition of the DP IV enzyme (used here by way of example also to release the DP IV-inhibitor) with removal of the N-terminal dipeptide H-Gly-Pro-OH. Accordingly, in the mass spectrum (FIG. 7) markedly more than 50% of the incubated compound according to the invention can be detected even after an incubation period of 60 minutes.

DP IV [2] = biological target: T1, DP IV; assay: Stability and DP IV-catalysed cleavage of the masked compound, MALDI-TOF mass spectrum of incubation batch; format: biochemical
Protocol: as §1

[3] = Intramolecular cyclisation in aqueous buffer solution monitored by MALDI-TOF mass spectrometry; format: physicochemical; conditions: aqueous buffer solution pH=7.6, MALDI-TOF MS
Excerpt: The products of that reaction are the respective pyrazine derivatives (FIG. 1).

[4] = Intramolecular cyclisation (stability) in 0.1 M HEPES buffer quantified by UV spectrometry; format: physicochemical; conditions: pH=7.6, 25° C.; for k (rate constant of intramolecular cyclisation): UV spectrometry
Protocol: The cyclisation reaction was monitored over a period of 40 minutes. The formation of the double bond system of the pyrazine, which takes place during the intramolecular reaction, enables quantitative analysis of the cyclisation process by means of UV spectrometry (FIG. 4). The rate constants determined there from for the intramolecular cyclisation of unstable DP IV-inhibitors in 0.1 M HEPES buffer, pH=7.6, 25° C., are shown in Table 1.

T1 sequence (P27487 whole entry): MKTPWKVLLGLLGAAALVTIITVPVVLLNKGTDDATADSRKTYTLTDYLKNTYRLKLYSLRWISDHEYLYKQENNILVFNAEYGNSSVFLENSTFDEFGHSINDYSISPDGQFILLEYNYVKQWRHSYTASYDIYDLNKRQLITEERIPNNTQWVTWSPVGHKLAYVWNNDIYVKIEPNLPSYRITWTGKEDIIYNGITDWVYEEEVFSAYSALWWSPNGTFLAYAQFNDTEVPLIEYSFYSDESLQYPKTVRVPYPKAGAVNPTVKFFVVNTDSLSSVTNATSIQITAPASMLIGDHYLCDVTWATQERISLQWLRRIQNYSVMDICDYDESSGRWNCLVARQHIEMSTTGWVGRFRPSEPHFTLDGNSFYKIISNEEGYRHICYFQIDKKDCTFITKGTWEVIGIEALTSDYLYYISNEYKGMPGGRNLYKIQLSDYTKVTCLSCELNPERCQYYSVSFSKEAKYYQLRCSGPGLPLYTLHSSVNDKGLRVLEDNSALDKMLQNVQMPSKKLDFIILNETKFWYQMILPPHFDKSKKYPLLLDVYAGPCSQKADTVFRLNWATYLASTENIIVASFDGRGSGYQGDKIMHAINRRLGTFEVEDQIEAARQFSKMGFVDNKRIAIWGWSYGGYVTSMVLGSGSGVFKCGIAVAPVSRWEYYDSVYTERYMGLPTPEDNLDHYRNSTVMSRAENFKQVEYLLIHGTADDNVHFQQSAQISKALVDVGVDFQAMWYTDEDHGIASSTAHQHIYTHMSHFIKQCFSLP

| Period within which breakdown to the cyclic pyrazine derivative is completed quantitatively [3] [min] | half-life [4] [min] | SMILES | Duration of DP IV-inhibitory activity compared with the unstable DP IV-inhibitors (DP IV [1]; 2.6×10^−5 mol/litre compound, FIG. 8) | Inhibition of the target enzyme DP IV (DP IV [1]; substrate H-Gly-Pro-pNA, 0.06 μg/ml DP IV, 0.1 M HEPES pH=7.6, 30° C.) | Incubated compound still detectable in mass spectrum (DP IV [2]; incubation with 0.06 μg/ml DP IV, 0.1 M HEPES pH=7.6, 30° C., after 60 minutes) | Stability in buffered aqueous solution in the absence of an enzyme (DP IV [2]; over a period of 24 hours) | k (rate constant of intramolecular cyclisation) [4] [min⁻¹] |
| --- | --- | --- | --- | --- | --- | --- | --- |
|  |  | CC(C)C(NC(=O)C1CCCN1C(=O)CN)C(=O)N1CCCC1C(=O)C[n+]1ccccc1.[Cl-] (stereo not drawn) [H-Gly-Pro-Val-Pro-CH2—(N+C5H5), H-Gly-Pro-Val-Pro-CH2—(N^+C5H5)/C1^−] | markedly prolonged activity | effective inhibition of the target enzyme | more than 50% | stable |  |
| ≤ 30 | 9.6 | NC(Cc1ccccc1)C(=O)N1CCCC1C(=O)C[n+]1ccccc1.[Cl-] (stereo not drawn) [H-Phe-Pro-CH2-(N^+C5H5), H-Phe-Pro-CH2—(N^+C5H5)/C1^−] |  |  |  |  | 0.0012 |
| ≤ 60 | 13.3 | CC(C)C(N)C(=O)N1CCCC1C(=O)C[n+]1ccccc1.[Cl-] (stereo not drawn) [H-Val-Pro-CH2-(N^+C5H5), H-Val-Pro-CH2—(N^+C5H5)/C1] |  |  |  |  | 0.00087 |

Source: US7053055B2, “Compounds of unstable DP IV-inhibitors” (priority 1998, dated 2006)
